Experimental data published in patent publication US20250049937A1, “NOVEL AURISTATIN ANALOGS AND IMMUNOCONJUGATES THEREOF” (priority 2021, published 2025).

Test system: HCC1954 breast ductal carcinoma cells
Assay: HCC1954 5-day cell viability assay (Cell Titer Glo 2.0)
Assay type: cell-based
Settings: Homo sapiens, HCC1954, 120 h, read-out: IC50 (HCC1954 5-Day Assay)
Protocol: (§1) *Biological assay protocol: HCC1954 breast ductal carcinoma or SK-BR-3 cells (ATCC, Manassas, VA, USA) were seeded into 384-well white-walled culture plates and allowed to adhere for 2-4 hours. Cells were then treated with test articles at least in duplicate by addition of 5-fold serially diluted test articles prepared at 2× final concentration and incubated at 37° C. for 120 hours. Cell viability following treatment was determined by Cell Titer Glo 2.0 Assay (Promega, Madison, WI, USA) and normalized to non-treated controls. Dose-response relationships were analyzed using GraphPad Prism (La Jolla, CA, USA), and IC50 values were derived from non-linear regression analyses using a 4-parameter logistic equation
as §1, with “HCC1954” for “*Biological assay protocol: HCC1954”, “carcinoma” for “carcinoma or SK-BR-3”, “treated” for “treated with test articles”, “equation.” for “equation”

SMILES	IC50 [nM]
CC[C@H](C)[C@@H]([C@@H](CC(=O)N1CCC[C@H]1[C@H](OC)[C@@H](C)C(=O)N[C@H](CC#N)Cc1ccc(N)cc1)OC)N(C)C(=O)[C@@H](NC(=O)[C@H](C(C)C)N(C)C)C(C)C [Compound 1, (S)—N-((3R,4S,5S)-1-((S)-2-((1R,2R)-3-(((S)-1-(4-aminophenyl)-3-cyanopropan-2-yl)amino)-1-methoxy-2-methyl-3-oxopropyl)pyrrolidin-1-yl)-3-methoxy-5-methyl-1-oxoheptan-4-yl)-2-((S)-2-(dimethylamino)-3-methylbutanamido)-N,3-dimethylbutanamide]	0.31
CC[C@H](C)[C@@H]([C@@H](CC(=O)N1CCC[C@H]1[C@H](OC)[C@@H](C)C(=O)N[C@H](CC#N)Cc1cccc(N)c1)OC)N(C)C(=O)[C@@H](NC(=O)[C@H](C(C)C)N(C)C)C(C)C [Compound 2, (S)—N-((3R,4S,5S)-1-((S)-2-((1R,2R)-3-(((S)-1-(3-aminophenyl)-3-cyanopropan-2-yl)amino)-1-methoxy-2-methyl-3-oxopropyl)pyrrolidin-1-yl)-3-methoxy-5-methyl-1-oxoheptan-4-yl)-2-((S)-2-(dimethylamino)-3-methylbutanamido)-N,3-dimethylbutanamide]	0.37
CC[C@H](C)[C@@H]([C@@H](CC(=O)N1CCC[C@H]1[C@H](OC)[C@@H](C)C(=O)N[C@H](CC#N)Cc1cccc(N)c1)OC)N(C)C(=O)[C@@H](NC(=O)[C@@H](C(C)C)N(C)C)C(C)C [Compound 3, (S)—N-((3R,4S,5S)-1-((S)-2-((1R,2R)-3-(((S)-1-(3-aminophenyl)-3-cyanopropan-2-yl)amino)-1-methoxy-2-methyl-3-oxopropyl)pyrrolidin-1-yl)-3-methoxy-5-methyl-1-oxoheptan-4-yl)-2-((R)-2-(dimethylamino)-3-methylbutanamido)-N,3-dimethylbutanamide]	0.12
CC[C@H](C)[C@@H]([C@@H](CC(=O)N1CCC[C@H]1[C@H](OC)[C@@H](C)C(=O)N[C@H](CC#N)Cc1cccc(N)c1)OC)N(C)C(=O)[C@@H](NC(=O)[C@H](C)N(C)C)C(C)C [Compound 4, (S)—N-((3R,4S,5S)-1-((S)-2-((1R,2R)-3-(((S)-1-(3-aminophenyl)-3-cyanopropan-2-yl)amino)-1-methoxy-2-methyl-3-oxopropyl)pyrrolidin-1-yl)-3-methoxy-5-methyl-1-oxoheptan-4-yl)-2-((S)-2-(dimethylamino)propanamido)-N,3-dimethylbutanamide]	0.49
CC[C@H](C)[C@@H]([C@@H](CC(=O)N1CCC[C@H]1[C@H](OC)[C@@H](C)C(=O)N[C@H](CC#N)Cc1cccc(N)c1)OC)N(C)C(=O)[C@@H](NC(=O)[C@@H](C)N(C)C)C(C)C [Compound 5, (S)—N-((3R,4S,5S)-1-((S)-2-((1R,2R)-3-(((S)-1-(3-aminophenyl)-3-cyanopropan-2-yl)amino)-1-methoxy-2-methyl-3-oxopropyl)pyrrolidin-1-yl)-3-methoxy-5-methyl-1-oxoheptan-4-yl)-2-((R)-2-(dimethylamino)propanamido)-N,3-dimethylbutanamide]	0.37
CC[C@H](C)[C@@H]([C@@H](CC(=O)N1CCC[C@H]1[C@H](OC)[C@@H](C)C(=O)N[C@H](CC#N)Cc1cccc(N)c1)OC)N(C)C(=O)[C@@H](NC(=O)CN(C)C)C(C)C [Compound 6, (S)—N-((3R,4S,5S)-1-((S)-2-((1R,2R)-3-(((S)-1-(3-aminophenyl)-3-cyanopropan-2-yl)amino)-1-methoxy-2-methyl-3-oxopropyl)pyrrolidin-1-yl)-3-methoxy-5-methyl-1-oxoheptan-4-yl)-2-(2-(dimethylamino)acetamido)-N,3-dimethylbutanamide]	0.78
CC[C@H](C)[C@@H]([C@@H](CC(=O)N1CCC[C@H]1[C@H](OC)[C@@H](C)C(=O)N(C)[C@H](CC#N)Cc1cccc(N)c1)OC)N(C)C(=O)[C@@H](NC(=O)[C@H](C(C)C)N(C)C)C(C)C [Compound 7, (S)—N-((3R,4S,5S)-1-((S)-2-((1R,2R)-3-(((S)-1-(3-aminophenyl)-3-cyanopropan-2-yl)(methyl)amino)-1-methoxy-2-methyl-3-oxopropyl)pyrrolidin-1-yl)-3-methoxy-5-methyl-1-oxoheptan-4-yl)-2-((S)-2-(dimethylamino)-3-methylbutanamido)-N,3-dimethylbutanamide]	0.07
CC[C@H](C)[C@@H]([C@@H](CC(=O)N1CCC[C@H]1[C@H](OC)[C@@H](C)C(=O)N(C)[C@H](CC#N)Cc1cccc(N)c1)OC)N(C)C(=O)[C@@H](NC(=O)[C@H](C)N(C)C)C(C)C [Compound 8, (S)—N-((3R,4S,5S)-1-((S)-2-((1R,2R)-3-(((S)-1-(3-aminophenyl)-3-cyanopropan-2-yl)(methyl)amino)-1-methoxy-2-methyl-3-oxopropyl)pyrrolidin-1-yl)-3-methoxy-5-methyl-1-oxoheptan-4-yl)-2-((S)-2-(dimethylamino)propanamido)-N,3-dimethylbutanamide]	0.22
CC[C@H](C)[C@@H]([C@@H](CC(=O)N1CCC[C@H]1[C@H](OC)[C@@H](C)C(=O)N(C)[C@H](CC#N)Cc1cccc(N)c1)OC)N(C)C(=O)[C@@H](NC(=O)[C@@H](C)N(C)C)C(C)C [Compound 9, (S)—N-((3R,4S,5S)-1-((S)-2-((1R,2R)-3-(((S)-1-(3-aminophenyl)-3-cyanopropan-2-yl)(methyl)amino)-1-methoxy-2-methyl-3-oxopropyl)pyrrolidin-1-yl)-3-methoxy-5-methyl-1-oxoheptan-4-yl)-2-((R)-2-(dimethylamino)propanamido)-N,3-dimethylbutanamide]	0.58
